Values of other authors in patent publication US9828409B2, “Bridged-cyclo-ProTides as prodrugs of therapeutic nucleosides and nucleotides” (priority 2014, dated 2017).

Settings: patients in clinical trials

## CCOc1nc(N)nc2c1ncn2[C@@H]1O[C@@H]2COP(=O)(OC(C)C)O[C@H]2[C@@]1(C)F (stereo partly shown) [PSI-352938]
  level of liver enzymes in patients: elevated level of liver enzymes
